Read-outs that look alike come from different tables or passages of the source.
Target: T1, Recombinant human Farnesyl Pyrophosphate synthase (FPPS) (Homo sapiens, UniProt P14324)
T1 construct: made in house
T1 sequence (P14324 72-419 limits assumed): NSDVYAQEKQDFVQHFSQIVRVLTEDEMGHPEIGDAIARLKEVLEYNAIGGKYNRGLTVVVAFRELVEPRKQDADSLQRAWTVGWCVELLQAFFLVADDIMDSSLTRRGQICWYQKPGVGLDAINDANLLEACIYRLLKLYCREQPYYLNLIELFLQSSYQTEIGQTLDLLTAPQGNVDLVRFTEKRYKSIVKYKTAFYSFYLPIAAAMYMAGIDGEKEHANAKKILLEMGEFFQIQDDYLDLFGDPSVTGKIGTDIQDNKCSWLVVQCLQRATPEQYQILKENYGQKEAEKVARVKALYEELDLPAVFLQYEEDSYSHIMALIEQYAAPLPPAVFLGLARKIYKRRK
Experiment: FPPS SPA (scintillation proximity FlashPlate assay of FPPS inhibition)
Format: biochemical

[1] = Example 16 table, FPPS SPA, read-out: IC50
[2] = Inhibition according to the FPPS SPA (Example 21), read-out: IC50
[3] = Example 15 table, FPPS SPA, read-out: IC50
[4] = Example 13 table, FPPS SPA, read-out: IC50
[5] = IC50, Example 13 table, FPPS SPA

Row | Compound | IC50 [3] | IC50 [4] | further results
1 | O=C(O)c1ccc(NCC2CC2)cc1OCc1cccc2ccccc12 [16 c)] | – | – | IC50 [1]: 1200 nM
2 | O=C(O)c1ccc(OCc2ccccc2)cc1OCc1cccc2ccccc12 [17 n)] | – | – | IC50 [2]: 730 nM
3 | O=C(O)c1ccc(NCCCO)cc1OCc1cccc2ccccc12 [15 ab)] | 2310 nM | – | –
4 | O=C(O)c1ccc(NC2CCCCCC2)cc1OCc1cccc2ccccc12 [15 aj)] | 1790 nM | – | –
5 | O=C(O)c1ccc(-c2cccc(O)c2)cc1OCc1cccc2ccccc12 [13 au)] | – | 380 nM | –
6 | CC(=O)N1CCN(c2ccc(C(=O)O)c(OCc3cccc4ccccc34)c2)CC1 [15 as)] | 6500 nM | – | –
7 | O=C(O)c1ccc(-c2ccc(Cl)cc2)cc1OCc1cccc2ccccc12 [13 av)] | – | – | IC50 [5]: 690 nM
8 | O=C(O)c1ccc(-c2cccc3[nH]ccc23)cc1OCc1cccc2ccccc12 [13 ah)] | – | 260 nM | –
9 | O=C(O)c1ccc(-c2ccc3c(c2)OCO3)cc1OCc1cccc2ccccc12 [13 ba)] | – | 240 nM | –
10 | Cc1ccc2ccccc2c1COc1ccccc1C(=O)O [17 b)] | – | – | IC50 [2]: 340 nM
11 | CC(C)CCOc1ccc(C(=O)O)c(OCc2cccc3ccccc23)c1 [17 m)] | – | – | IC50 [2]: 1900 nM
12 | COc1ccccc1-c1ccc(C(=O)O)c(OCc2cccc3ccccc23)c1 [13 ap)] | – | 1930 nM | –
13 | COc1ccc2cc(-c3ccc(C(=O)O)c(OCc4cccc5ccccc45)c3)ccc2c1 [13 ay)] | – | 380 nM | –
14 | O=C(O)c1ccc(-c2ccc3c(c2)OCCO3)cc1OCc1cccc2ccccc12 [13 ao)] | – | 420 nM | –
15 | CC1CCC(Nc2ccc(C(=O)O)c(OCc3cccc4ccccc34)c2)CC1 (centres unmarked) [15 ak)] | 1240 nM | – | –
16 | O=C(O)c1ccc(-c2ccccc2F)cc1OCc1cccc2ccccc12 [13 ak)] | – | 230 nM | –
17 | COc1ccc(C(=O)O)c(OCc2cccc3ccccc23)c1 [17 s)] | – | – | IC50 [2]: 1340 nM
18 | O=C(O)c1ccc(-c2cccc(F)c2)cc1OCc1cccc2ccccc12 [13 aq)] | – | 1140 nM | –
19 | O=C(O)c1ccc(NCC2CCCCC2)cc1OCc1cccc2ccccc12 [15 ag)] | 2430 nM | – | –
20 | O=C(O)c1ccc(N[C@H]2CC[C@H](O)CC2)cc1OCc1cccc2ccccc12 [15 am)] | 190 nM | – | –
21 | CN1CCC(Nc2ccc(C(=O)O)c(OCc3cccc4ccccc34)c2)CC1 [15 aw)] | 4750 nM | – | –
22 | O=C(O)c1ccc(NC2CCCC2)cc1OCc1cccc2ccccc12 [15 aa)] | 630 nM | – | –
23 | O=C(O)c1ccc(NCc2ccccc2)cc1OCc1cccc2ccccc12 [16 b)] | – | – | IC50 [1]: 210 nM
24 | CN1CCN(c2ccc(C(=O)O)c(OCc3cccc4ccccc34)c2)CC1 [15 ba)] | 38600 nM | – | –
25 | Cc1ccccc1-c1ccc(C(=O)O)c(OCc2cccc3ccccc23)c1 [13 ar)] | – | 530 nM | –

Row | Compound | IC50 [3] | IC50 [4] | further results
26 | O=C(O)c1ccc(-c2cccc(CO)c2)cc1OCc1cccc2ccccc12 [13 ad)] | – | 500 nM | –
27 | COc1ccc(-c2ccc(C(=O)O)c(OCc3cccc4ccccc34)c2)cc1OC [13 ab)] | – | 260 nM | –
28 | COc1ccc(OCc2cccc3ccccc23)c(C(=O)O)c1 [17 o)] | – | – | IC50 [2]: 880 nM
29 | CCN(CC)c1ccc(C(=O)O)c(OCc2cccc3ccc(Cl)cc23)c1 [17 f)] | – | – | IC50 [2]: 1820 nM
30 | O=C(O)c1ccc(-c2ccc(CO)cc2)cc1OCc1cccc2ccccc12 [13 as)] | – | 380 nM | –
31 | CN1CCCN(c2ccc(C(=O)O)c(OCc3cccc4ccccc34)c2)CC1 [15 at)] | 6450 nM | – | –
32 | O=C(O)c1ccc(-c2ccc(F)c(F)c2)cc1OCc1cccc2ccccc12 [13 ai)] | – | 320 nM | –
33 | Cc1cc(O)c(C(=O)O)c(OCc2cccc3ccccc23)c1 [17 p)] | – | – | IC50 [2]: 2500 nM
34 | COc1cccc(-c2ccc(C(=O)O)c(OCc3cccc4ccccc34)c2)c1 [13 af)] | – | 1550 nM | –
35 | COCCN(C)c1ccc(C(=O)O)c(OCc2cccc3ccccc23)c1 [15 ae)] | 1390 nM | – | –
36 | CN(CCO)c1ccc(C(=O)O)c(OCc2cccc3ccccc23)c1 [15 af)] | 720 nM | – | –
37 | CCN(CC)c1ccc(C(=O)O)c(OCc2c(C)ccc3ccccc23)c1 [17 d)] | – | – | IC50 [2]: 660 nM
38 | O=C(O)c1ccc(-c2ccc3[nH]ccc3c2)cc1OCc1cccc2ccccc12 [13 am)] | – | 340 nM | –
39 | CCN(CC)c1ccc(C(=O)O)c(OCc2c(Cl)ccc3ccccc23)c1 [17 a)] | – | – | IC50 [2]: 770 nM
40 | CCNc1ccc(C(=O)O)c(OCc2cccc3ccccc23)c1 [15 ao)] | 730 nM | – | –
41 | O=C(O)c1ccc(-c2cccc(OC(F)(F)F)c2)cc1OCc1cccc2ccccc12 [13 ae)] | – | > 10000 nM | –
42 | O=C(O)c1cc(Cl)ccc1OCc1cccc2ccccc12 [17 j)] | – | – | IC50 [2]: 2960 nM
43 | CCCNc1ccc(C(=O)O)c(OCc2cccc3ccccc23)c1 [15 al)] | 370 nM | – | –
44 | CC(Nc1ccc(C(=O)O)c(OCc2cccc3ccccc23)c1)C(C)(C)C (centres unmarked) [15 aq)] | 650 nM | – | –
45 | O=C(O)c1ccc(Br)cc1OCc1cccc2ccccc12 [17 q)] | – | – | IC50 [2]: 6750 nM
46 | O=C(O)c1ccc(-c2ccc(Cl)c(Cl)c2)cc1OCc1cccc2ccccc12 [13 ac)] | – | 1460 nM | –
47 | CN(C)c1ccc(C(=O)O)c(OCc2cccc3ccccc23)c1 [15 an)] | – | – | IC50 (IC50, Example 15 table, FPPS SPA): 190 nM
48 | Cc1cccc(C)c1-c1ccc(C(=O)O)c(OCc2cccc3ccccc23)c1 [13 ag)] | – | 1100 nM | –
49 | CCN(CC)CCN(C)c1ccc(C(=O)O)c(OCc2cccc3ccccc23)c1 [15 az)] | 26600 nM | – | –
50 | O=C(O)c1ccc(N2CCOCC2)cc1OCc1cccc2ccccc12 [15 au)] | 3180 nM | – | –

Row | Compound | IC50 [3] | IC50 [4] | further results
51 | Cc1ccc2ccccc2c1COc1cc(-n2c(C)ccc2C)ccc1C(=O)O [17 c)] | – | – | IC50 [2]: 480 nM
52 | Cc1ccc(COc2ccccc2C(=O)O)c2ccccc12 [17 e)] | – | – | IC50 [2]: 1830 nM
53 | C[C@H](Nc1ccc(C(=O)O)c(OCc2cccc3ccccc23)c1)C1CCCCC1 [15 ai)] | 3520 nM | – | –
54 | O=C(O)c1ccc(-c2ccoc2)cc1OCc1cccc2ccccc12 [13 aj)] | – | 550 nM | –
55 | Cc1cccc(-c2ccc(C(=O)O)c(OCc3cccc4ccccc34)c2)c1 [13 ax)] | – | 400 nM | –
56 | COCCNc1ccc(C(=O)O)c(OCc2cccc3ccccc23)c1 [15 ar)] | 8100 nM | – | –
57 | Cc1ccc(C)n1-c1ccc(C(=O)O)c(OCc2cccc3ccccc23)c1 [17 g)] | – | – | IC50 [2]: 240 nM
58 | CN1CCCC1CCNc1ccc(C(=O)O)c(OCc2cccc3ccccc23)c1 (centres unmarked) [15 ap)] | 17500 nM | – | –
59 | O=C(O)c1ccc(-c2csc3ccccc23)cc1OCc1cccc2ccccc12 [13 an)] | – | 1350 nM | –
60 | Cc1cc(Cl)ccc1-c1ccc(C(=O)O)c(OCc2cccc3ccccc23)c1 [13 aw)] | – | 440 nM | –
61 | O=C(O)c1ccccc1OCc1cccc2ccccc12 [17 r)] | – | – | IC50 [2]: 12800 nM
62 | O=C(O)c1ccc(N2CCCCCC2)cc1OCc1cccc2ccccc12 [15 ac)] | 530 nM | – | –
63 | O=C(O)c1ccccc1OCc1cccc2ccccc12 [Example 17 r)] | – | – | IC50 (IC50 on FPPS, test system termed "FPS SPA" (Example 18)): 12500 nM
64 | CCN(CC)c1ccc(C(=O)O)c(OCc2cccc3ccccc23)c1 [17 i)] | – | – | IC50 [2]: 400 nM
65 | CCCN(CC1CC1)c1ccc(C(=O)O)c(OCc2cccc3ccccc23)c1 [15 ah)] | 1310 nM | – | –
66 | O=C(O)c1ccc(-c2cc3ccccc3o2)cc1OCc1cccc2ccccc12 [13 al)] | – | 1120 nM | –
67 | CC(C)(C)CNc1ccc(C(=O)O)c(OCc2cccc3ccccc23)c1 [15 ad)] | 470 nM | – | –
68 | O=C(O)c1cc2ccccc2cc1OCc1cccc2ccccc12 [17 h)] | – | – | IC50 [2]: 840 nM
69 | O=C(O)c1ccc(-c2ccc(F)cc2)cc1OCc1cccc2ccccc12 [13 at)] | – | – | IC50 [5]: 300 nM
70 | O=C(O)c1ccc(OC(F)(F)F)cc1OCc1cccc2ccccc12 [17 l)] | – | – | IC50 [2]: 2910 nM
71 | CC(=O)Nc1ccc(-c2ccc(C(=O)O)c(OCc3cccc4ccccc34)c2)cc1 [13 da)] | – | 130 nM | –
72 | Cn1ccc2cc(-c3ccc(C(=O)O)c(OCc4cccc5ccccc45)c3)ccc21 [13 ca)] | – | 270 nM | –
73 | O=C(O)c1ccc(C(F)(F)F)cc1OCc1cccc2ccccc12 [17 k)] | – | – | IC50 [2]: 810 nM
74 | O=C(O)c1ccc(-c2ccc(O)cc2)cc1OCc1cccc2ccccc12 [13 az)] | – | – | IC50 [5]: 380 nM

From patent US20110288057A1, “SALICYLIC ACID DERIVATIVES BEING FARNESYL PYROPHOSPHATE SYNTHASE ACTIVITY INHIBITORS” (Novartis AG, priority 2008, published 2011)
